Measurements published in patent US20230382925A1, “MODULATORS OF CYSTIC FIBROSIS TRANSMEMBRANE CONDUCTANCE REGULATOR” (VERTEX PHARMACEUTICALS INCORPORATED, priority 2020, published 2023).
pEC50: −log10 of the molar value.

How the values were obtained:
Format in all cases: cell-based
CFTR [1] = biological target: T1, CFTR (Homo sapiens, UniProt P13569, DEL508-508); experiment: HBE assay: Ussing chamber assay of CFTR-mediated short-circuit currents (F508del/MF-HBE, with 1 μM Ivacaftor); conditions: F508del/MF-HBE cells, 18-24 hours, 20% human serum; for pEC50: range of concentrations with 1 μM Ivacaftor; for HBE Max Activity: with 1 μM Ivacaftor, compared to known Vertex corrector with 18 μM Tezacaftor and 1 μM Ivacaftor; for HBE Activity at 10 μM: single fixed concentration of 10 μM with 1 μM Ivacaftor
T1 construct: human bronchial epithelial (HBE) cells derived from CF subjects heterozygous for F508del; endogenous in cells; host or cells: primary human bronchial epithelial cells from CF subjects (F508del/MF-HBE)
Description: 1. Ussing Chamber Assay of CFTR-mediated short-circuit currents
Ussing chamber experiments were performed using human bronchial epithelial (HBE) cells derived from CF subjects heterozygous for F508del and a minimal function CFTR mutation (F508del/MF-HBE) and cultured as previously described (Neuberger T, Burton B, Clark H, Van Goor F Methods Mol Biol 2011:741:39-54). After four days the apical media was removed, and the cells were grown at an air liquid interface for >14 days prior to use.
To isolate the CFTR-mediated short-circuit (ISC) current, F508del/MF-HBE grown on Costar® Snapwell™ cell culture inserts were mounted in an Ussing chamber and the transepithelial ISC was measured under voltage-clamp recording conditions (Vhold=0 mV) at 37° C. The basolateral solution contained (in mM) 145 NaCl, 0.83 K2HPO4, 3.3 KH2PO4, 1.2 MgCl2, 1.2 CaCl2), 10 Glucose, 10 HEPES (pH adjusted to 7.4 with NaOH) and the apical solution contained (in mM) 145 NaGluconate, 1.2 MgCl2, 1.2 CaCl2), 10 glucose, 10 HEPES (pH adjusted to 7.4 with NaOH) and 30 μM amiloride to block the epithelial sodium channel. Forskolin (20 μM) was added to the apical surface to activate CFTR, followed by apical addition of a CFTR inhibitor cocktail consisting of BPO, GlyH-101, and CFTR inhibitor 172 (each at 20 μM final assay concentration) to specifically isolate CFTR currents. The CFTR-mediated ISC (μA/cm^2) for each condition was determined from the peak forskolin response to the steady-state current following inhibition.
2. Identification of Corrector Compounds
The activity of the CFTR corrector compounds on the CFTR-mediated ISC was determined in Ussing chamber studies as described above. The F508del/MF-HBE cell cultures were either incubated with the corrector compounds at a range of concentrations in combination with 1 μM Ivacaftor or were incubated with the corrector compounds at a single fixed concentration of 10 μM in combination with 1 μM Ivacaftor for 18-24 hours at 37° C. and in the presence of 20% human serum. The concentration of corrector compounds with 1 μM Ivacaftor during the 18-24 hours incubations was kept constant throughout the Ussing chamber measurement of the CFTR-mediated ISC to ensure compounds were present throughout the entire experiment.

CFTR [2] = biological target: T2, CFTR (Homo sapiens, UniProt P13569); experiment: Membrane Potential Dye, Enteroid Assay A; conditions: for pEC50: read-out: Ent. A EC50
Method in brief: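 Primary human intestinal enteroid cells exposed to compound for 18–24 hours at 37 °C, then loaded 25 min with methyl oxonol membrane potential dye plus CaCC inhibitors. Chloride transport triggered in chloride-free buffer with 10 μM forskolin, 100 μM IBMX and 300 nM Compound III, fluorescence read 15 min; % Activity relative to a triple-combination corrector/potentiator control.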

CFTR [3] = biological target: T2, CFTR; experiment: Membrane Potential Dye, Enteroid Assay B; conditions: for pEC50: read-out: Ent. B EC50
Method in brief: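 Human intestinal enteroid cells exposed to compound 18-24 h at 37 °C, then loaded with methyl oxonol membrane-potential dye plus CaCC blockers. Chloride transport triggered in chloride-free buffer with 10 μM forskolin, 100 μM IBMX, 300 nM Compound III; fluorescence read 15 min, expressed as % of triple-corrector/potentiator combination control.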

T1 sequence (P13569 with tags, fused parts or gaps DEL508-508): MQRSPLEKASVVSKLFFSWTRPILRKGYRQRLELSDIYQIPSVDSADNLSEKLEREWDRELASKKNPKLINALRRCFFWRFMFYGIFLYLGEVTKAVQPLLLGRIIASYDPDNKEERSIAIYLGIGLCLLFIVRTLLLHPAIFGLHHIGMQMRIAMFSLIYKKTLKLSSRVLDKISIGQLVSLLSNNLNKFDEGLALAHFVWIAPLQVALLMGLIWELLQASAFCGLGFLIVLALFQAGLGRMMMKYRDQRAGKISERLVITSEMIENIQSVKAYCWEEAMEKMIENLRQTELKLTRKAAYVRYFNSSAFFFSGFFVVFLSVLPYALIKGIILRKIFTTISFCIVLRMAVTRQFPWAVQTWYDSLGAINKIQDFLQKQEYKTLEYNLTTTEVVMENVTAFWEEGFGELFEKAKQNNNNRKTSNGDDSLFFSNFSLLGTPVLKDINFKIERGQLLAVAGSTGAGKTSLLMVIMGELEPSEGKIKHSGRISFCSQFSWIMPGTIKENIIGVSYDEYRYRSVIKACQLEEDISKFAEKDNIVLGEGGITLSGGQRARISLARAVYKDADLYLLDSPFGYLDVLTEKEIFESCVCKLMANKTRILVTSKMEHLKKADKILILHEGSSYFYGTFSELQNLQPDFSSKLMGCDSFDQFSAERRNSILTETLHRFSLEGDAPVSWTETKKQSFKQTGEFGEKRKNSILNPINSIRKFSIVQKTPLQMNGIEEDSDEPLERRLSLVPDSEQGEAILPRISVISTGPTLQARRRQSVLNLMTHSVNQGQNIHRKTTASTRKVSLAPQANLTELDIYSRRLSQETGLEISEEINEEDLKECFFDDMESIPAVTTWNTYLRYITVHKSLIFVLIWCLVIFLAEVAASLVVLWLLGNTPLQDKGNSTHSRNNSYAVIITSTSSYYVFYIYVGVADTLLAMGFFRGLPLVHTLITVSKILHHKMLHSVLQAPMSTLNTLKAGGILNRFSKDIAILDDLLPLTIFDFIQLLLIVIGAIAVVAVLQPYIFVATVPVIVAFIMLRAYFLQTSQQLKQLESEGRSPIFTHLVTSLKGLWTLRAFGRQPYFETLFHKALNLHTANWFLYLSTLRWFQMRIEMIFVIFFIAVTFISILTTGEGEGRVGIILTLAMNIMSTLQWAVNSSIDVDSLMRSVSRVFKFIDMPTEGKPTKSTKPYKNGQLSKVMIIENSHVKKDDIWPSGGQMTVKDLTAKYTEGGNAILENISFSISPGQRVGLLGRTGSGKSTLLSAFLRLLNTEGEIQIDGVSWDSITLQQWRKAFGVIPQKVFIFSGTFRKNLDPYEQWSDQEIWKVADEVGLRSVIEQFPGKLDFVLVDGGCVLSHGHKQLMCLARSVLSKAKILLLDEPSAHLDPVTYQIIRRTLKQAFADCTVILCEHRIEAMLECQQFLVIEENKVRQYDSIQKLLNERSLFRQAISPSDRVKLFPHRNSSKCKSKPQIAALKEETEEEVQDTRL
T2 sequence (P13569 with tags, fused parts or gaps DEL508-508): as above

| Structure (SMILES) | pEC50 (CFTR [1]) | HBE Max Activity (CFTR [1]) | HBE Activity at 10 μM (CFTR [1]) | Ent. A Max Activity (%) (CFTR [2]) | pEC50 (CFTR [2]) | Ent. B Max Activity (%) (CFTR [3]) | pEC50 (CFTR [3]) |
| --- | --- | --- | --- | --- | --- | --- | --- |
| Cc1cccc(C)c1-c1cc2nc(n1)NS(=O)(=O)c1cccc(c1)C(=O)N(C1CC3(CCN(c4ccccn4)CC3)C1)[C@H](CC(C)(C)C)CO2 [Compound 350] | > 6.00 | +++ (+++ is >60%) | – | – | – | – | – |
| Cc1cccc(C)c1-c1cc2nc(n1)NS(=O)(=O)c1cccc(c1)C(=O)N(C1CC3(C1)CC(O)(Cc1ccccc1)C3)[C@H](CC(C)(C)C)CO2 (stereo in doubt) [Compound 430] | > 6.00 | +++ (+++ is >60%) | – | – | – | – | – |
| Cc1cccc(C)c1-c1cc2nc(n1)NS(=O)(=O)c1cccc(c1)C(=O)N(C1CC(N3C[C@@H](C)O[C@@H](C)C3)C1)[C@H](CC(C)(C)C)CO2 (stereo in doubt) [Compound 434] | – | – | +++ (+++ is >60%) | – | – | – | – |
| Cc1cccc(C)c1-c1cc2nc(n1)NS(=O)(=O)c1cccc(c1)C(=O)N(c1cnn(CC(=O)OC(C)(C)C)c1)[C@H](CC(C)C)CO2 [Compound 429] | > 6.00 | +++ (+++ is >60%) | – | – | – | – | – |
| Cc1cccc(C)c1-c1cc2nc(n1)NS(=O)(=O)c1cccc(c1)C(=O)N([C@H]1C[C@@H](N3CCOCC3)C1)[C@H](CC(C)(C)C)CO2 [Compound 178, (11R)-6-(2,6-Dimethylphenyl)-11-(2,2-dimethylpropyl)-12-(3-morpholinocyclobutyl)-2,2-dioxo-9-oxa-2λ^6-thia-3,5,12,19-tetrazatricyclo[12.3.1.14,8]nonadeca-1(18),4(19),5,7,14,16-hexaen-13-one] | > 6.00 | +++ (+++ is >60%) | – | – | – | – | – |
| Cc1cccc(C)c1-c1cc2nc(n1)NS(=O)(=O)c1cccc(c1)C(=O)N(c1cnn(CC(N)=O)c1)[C@H](CC(C)(C)C)CO2 [Compound 426] | 5.52 to 6.00 | +++ (+++ is >60%) | – | – | – | – | – |
| Cc1cccc(C)c1-c1cc2nc(n1)NS(=O)(=O)c1cccc(c1)C(=O)N([C@H]1C[C@@]3(C[C@H](NCC(F)(F)F)C3)C1)[C@H](CC1(C(F)(F)F)CC1)CO2 (stereo in doubt) [Compound 220] | > 6.00 | +++ (+++ is >60%) | – | – | – | – | – |
| Cc1cccc(C)c1-c1cc2nc(n1)NS(=O)(=O)c1cccc(c1)C(=O)N(C1CC3(CC(N4CCOCC4)C3)C1)[C@H](CC(C)(C)C)CO2 (stereo partly drawn) [Compound 433] | > 6.00 | +++ (+++ is >60%) | – | – | – | – | – |
| Cc1cccc(C)c1-c1cc2nc(n1)NS(=O)(=O)c1cccc(c1)C(=O)N(C1CN(C(=O)OCc3ccccc3)C1)[C@H](CC(C)C)CO2 [Compound 100, Benzyl 3-[(11R)-6-(2,6-dimethylphenyl)-11-isobutyl-2,2,13-trioxo-9-oxa-2λ^6-thia-3,5,12,19-tetrazatricyclo[12.3.1.14,8]nonadeca-1(18),4(19),5,7,14,16-hexaen-12-yl]azetidine-1-carboxylate] | – | – | – | +++ (+++ is >60%) | > 6.00 | +++ (+++ is >60%) | > 6.00 |
| Cc1cccc(C)c1-c1cc2nc(n1)NS(=O)(=O)c1cccc(c1)C(=O)N(C1CC3(CCN(C)CC3)C1)CC(CC(C)C)(CC(C)C)CO2 (stereo not drawn) [Compound 311] | – | – | – | +++ (+++ is >60%) | > 6.00 | +++ (+++ is >60%) | > 6.00 |
| Cc1cccc(C)c1-c1cc2nc(n1)NS(=O)(=O)c1cccc(c1)C(=O)N(C1CC3(CCN(C(=O)OC(C)C)CC3)C1)[C@H](CC(C)C)CO2 [Compound 21, Isopropyl 2-[(11R)-6-(2,6-dimethylphenyl)-11-isobutyl-2,2,13-trioxo-9-oxa-2λ^6-thia-3,5,12,19-tetrazatricyclo[12.3.1.14,8]nonadeca-1(18),4(19),5,7,14,16-hexaen-12-yl]-7-azaspiro[3.5]nonane-7-carboxylate] | – | – | – | +++ (+++ is >60%) | > 6.00 | +++ (+++ is >60%) | > 6.00 |

Next, values leading:

| pEC50 (CFTR [1]) | HBE Max Activity (CFTR [1]) | HBE Activity at 10 μM (CFTR [1]) | Ent. A Max Activity (%) (CFTR [2]) | pEC50 (CFTR [2]) | Ent. B Max Activity (%) (CFTR [3]) | pEC50 (CFTR [3]) | Structure (SMILES) |
| --- | --- | --- | --- | --- | --- | --- | --- |
| – | – | +++ (+++ is >60%) | – | – | – | – | Cc1cccc(C)c1-c1cc2nc(n1)NS(=O)(=O)c1cccc(c1)C(=O)N(C1CC3(CCCCN3C(=O)CO)C1)[C@H](CC(C)(C)C)CO2 (stereo in doubt) [Compound 204] |
| > 6.00 | +++ (+++ is >60%) | – | – | – | – | – | Cc1cccc(C)c1-c1cc2nc(n1)NS(=O)(=O)c1cccc(c1)C(=O)N([C@H]1C[C@@]3(CCCN(C(=O)CO)C3)C1)[C@H](CC(C)(C)C)CO2 (single isomer, unassigned) [Compound 145] |
| > 6.00 | +++ (+++ is >60%) | – | – | – | – | – | Cc1cccc(C)c1-c1cc2nc(n1)NS(=O)(=O)c1cccc(c1)C(=O)N([C@H]1C[C@@]3(CCCN(C(=O)CO)C3)C1)[C@H](CC(C)(C)C)CO2 (single isomer, unassigned) [Compound 144] |
| – | – | – | +++ (+++ is >60%) | > 6.00 | +++ (+++ is >60%) | > 6.00 | COCCN1CCC2(CC1)CC(N1C(=O)c3cccc(c3)S(=O)(=O)Nc3nc(cc(-c4c(C)cccc4C)n3)OC[C@H]1CC(C)C)C2 [Compound 22, (11R)-6-(2,6-dimethylphenyl)-11-isobutyl-12-[7-(2-methoxyethyl)-7-azaspiro[3.5]nonan-2-yl]-2,2-dioxo-9-oxa-2λ^6-thia-3,5,12,19-tetrazatricyclo[12.3.1.14,8]nonadeca-1(18),4(19),5,7,14,16-hexaen-13-one] |
| – | – | – | +++ (+++ is >60%) | > 6.00 | +++ (+++ is >60%) | > 6.00 | COC(=O)N1CCCCC12CC(N1C(=O)c3cccc(c3)S(=O)(=O)Nc3nc(cc(-c4c(C)cccc4C)n3)OC[C@H]1CC(C)C)C2 (stereo partly drawn) [Compound 323] |
| – | – | – | +++ (+++ is >60%) | > 6.00 | ++ (++ is 30-60%) | > 6.00 | Cc1cccc(C)c1-c1cc2nc(n1)NS(=O)(=O)c1cccc(c1)C(=O)N([C@H]1C[C@@H](NC(=O)OC(C)(C)C)C1)[C@H](CC(C)C)CO2 [Compound 349] |
| – | – | – | +++ (+++ is >60%) | > 6.00 | +++ (+++ is >60%) | > 6.00 | COC(=O)NC1CC2(C1)CC(N1C(=O)c3cccc(c3)S(=O)(=O)Nc3nc(cc(-c4c(C)cccc4C)n3)OC[C@H]1CC(C)C)C2 (stereo partly drawn) [Compound 326] |
| – | – | – | +++ (+++ is >60%) | > 6.00 | +++ (+++ is >60%) | > 6.00 | CNC(=O)[C@H]1CC2(C1)C[C@H](N1C(=O)c3cccc(c3)S(=O)(=O)Nc3nc(cc(-c4c(C)cccc4C)n3)OC[C@H]1CC(C)C)C2 (stereo in doubt) [Compound 346] |
| – | – | – | +++ (+++ is >60%) | > 6.00 | +++ (+++ is >60%) | > 6.00 | Cc1cccc(C)c1-c1cc2nc(n1)NS(=O)(=O)c1cccc(c1)C(=O)N(C1CC3(CCN(CCC(F)(F)F)CC3)C1)[C@H](CC(C)C)CO2 [Compound 20, (11R)-6-(2,6-Dimethylphenyl)-11-isobutyl-2,2-dioxo-12-[7-(3,3,3-trifluoropropyl)-7-azaspiro[3.5]nonan-2-yl]-9-oxa-2λ^6-thia-3,5,12,19-tetrazatricyclo[12.3.1.14,8]nonadeca-1(18),4(19),5,7,14,16-hexaen-13-one] |
| – | – | – | +++ (+++ is >60%) | > 6.00 | +++ (+++ is >60%) | > 6.00 | Cc1cccc(C)c1-c1cc2nc(n1)NS(=O)(=O)c1cccc(c1)C(=O)N([C@H]1CC3(C[C@@H](CO)C3)C1)[C@H](CC(C)C)CO2 (stereo partly drawn) [Compound 337] |
